Assays:
PRMT5 [1] = target: T1, PRMT5 (Homo sapiens, UniProt O14744); experiment: PRMT5 biochemical IC50 assay with SAM as cofactor; conditions: PRMT5, SAM as cofactor; read-out: SAM IC50
T1 construct: purchased Viva (custom protein)

[2] = system: HAP1 MTAP-intact cell line; experiment: SDMA in-cell western assay, HAP1 MTAP-intact; type: cell-based; set-up: MTAP HAP1 intact IC50: scale not given here; conditions: HAP1 MTAP-intact; for IC50: Homo sapiens, HAP1, SDMA in-cell western, read-out: MTAP HAP1 intact IC50
Method in brief: (§1)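 Isogenic HAP1 pair: the MTAP-intact line expresses endogenous MTAP, and the deleted line is MTAP-null. Symmetric dimethylarginine was detected by in-cell western and IC50 values derived for each line.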

PRMT5 [3] = target: T1, PRMT5; experiment: PRMT5 biochemical IC50 assay with no cofactor; conditions: PRMT5, no cofactor; read-out: No Cofactor/rel IC50
Description: Table 1 indicates IC50 values (μM) against PRMT5 for exemplary compounds in the presence of SAM as cofactor, with no cofactor, and with MTA as cofactor, respectively (columns 4-6). […] Ki values can be calculated from the IC50 values as described in the Examples section. As detailed in the Examples section, for the assay performed in the presence of SAM, IC50=Ki×1.5 (Ki=IC50/1.5).

[4] = system: HAP1 MTAP-deleted cell line; experiment: Viability assay, MTAP-deleted cell line; type: cell-based; conditions: Homo sapiens, HAP1, viability assay, HAP1 MTAP-deleted; read-out: HAP1 MTAP deleted viability
Description: Table 1 additionally indicates IC50 values in a viability assay for the MTAP-deleted cell line (column 10), indicating the effect of treatment with compound on cell survival.

[5] = system: HAP1 MTAP-deleted cell line; experiment: SDMA in-cell western assay, HAP1 MTAP-deleted; type: cell-based; conditions: for IC50: Homo sapiens, HAP1, SDMA in-cell western, HAP1 MTAP-deleted, read-out: HAP1 MTAP deleted IC50; for MTAP intact/deleted ratio: IC50 ratio HAP1 MTAP-intact / HAP1 MTAP-deleted, SDMA in-cell western
Method in brief: as §1

PRMT5 [6] = target: T1, PRMT5; experiment: PRMT5 biochemical IC50 assay with MTA as cofactor; conditions: PRMT5, MTA as cofactor; read-out: MTA IC50

T1 sequence (O14744 whole entry): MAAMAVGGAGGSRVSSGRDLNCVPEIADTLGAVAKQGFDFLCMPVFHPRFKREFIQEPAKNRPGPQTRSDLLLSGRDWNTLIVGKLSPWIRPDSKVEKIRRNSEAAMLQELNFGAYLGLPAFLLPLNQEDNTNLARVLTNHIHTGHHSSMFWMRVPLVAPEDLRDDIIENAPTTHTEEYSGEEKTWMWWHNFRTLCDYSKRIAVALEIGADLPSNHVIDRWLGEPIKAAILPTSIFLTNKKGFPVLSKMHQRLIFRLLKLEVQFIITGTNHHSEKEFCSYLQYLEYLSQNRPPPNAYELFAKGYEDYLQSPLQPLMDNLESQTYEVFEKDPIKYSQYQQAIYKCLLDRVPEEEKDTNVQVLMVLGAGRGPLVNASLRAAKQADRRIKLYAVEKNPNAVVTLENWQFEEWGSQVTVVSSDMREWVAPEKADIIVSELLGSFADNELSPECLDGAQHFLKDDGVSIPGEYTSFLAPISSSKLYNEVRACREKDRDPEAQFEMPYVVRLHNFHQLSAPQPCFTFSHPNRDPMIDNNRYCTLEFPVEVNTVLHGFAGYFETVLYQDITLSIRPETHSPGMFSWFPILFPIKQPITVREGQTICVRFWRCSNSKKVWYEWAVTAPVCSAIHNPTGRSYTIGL
T1 sequence (Q9BQA1 whole entry partner): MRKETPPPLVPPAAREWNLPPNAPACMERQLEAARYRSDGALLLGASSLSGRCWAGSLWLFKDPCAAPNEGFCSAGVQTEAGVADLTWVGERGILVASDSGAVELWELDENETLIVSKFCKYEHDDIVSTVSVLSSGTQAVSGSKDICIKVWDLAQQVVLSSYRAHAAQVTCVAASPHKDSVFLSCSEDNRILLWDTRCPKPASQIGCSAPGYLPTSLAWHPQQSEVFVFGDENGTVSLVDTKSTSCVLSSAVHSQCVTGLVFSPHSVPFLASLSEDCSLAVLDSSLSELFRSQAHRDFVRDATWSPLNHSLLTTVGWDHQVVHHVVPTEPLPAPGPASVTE

| IC50 (PRMT5 [1]) [nM] | IC50 [2] [nM] | IC50 (PRMT5 [3]) [nM] | IC50 [5] [nM] | IC50 (PRMT5 [6]) [nM] | MTAP HAP1 intact IC50 ([2]; SDMA in-cell western) | Structure (SMILES) | IC50 [4] [nM] | MTAP intact/deleted ratio [5] |
| --- | --- | --- | --- | --- | --- | --- | --- | --- |
| > 500 | > 1000 | > 500 | > 1000 | 50 to 500 | – | Cc1cc(NC(=O)C(=O)N2C[C@@H](C)CC[C@H]2C23CC(O)(C2)C3)cnc1N (racemic) [Compound 774] | > 10000 | B (an IC50 ratio greater than or equal to 3 fold but lower than 10 fold) |
| 50 to 500 | > 1000 | 50 to 500 | < 100 | 50 to 500 | – | CNC(=O)N1CCC([C@@H]2CC[C@@H](C)CN2C(=O)C(=O)Nc2cnc(N)c(C)c2)CC1 (racemic) [Compound 781, 4-[(2R,5S)-1-[2-[(6-amino-5-methyl-3-pyridyl)amino]-2-oxo-acetyl]-5-methyl-2-piperidyl]-N-methyl-piperidine-1-carboxamide] | 1000 to 10000 | A (an IC50 ratio greater than or equal to 10 fold) |
| 50 to 500 | > 1000 | 50 to 500 | 100 to 1000 | < 50 | – | C[C@@H]1CC[C@@H](c2cncc(Cl)c2)N(C(=O)C(=O)Nc2cncc(C(N)=O)c2)C1 (racemic) [Compound 791, 5-(2-(2-(5-chloropyridin-3-yl)-5-methylpiperidin-1-yl)-2-oxoacetamido)nicotinamide] | 1000 to 10000 | A (an IC50 ratio greater than or equal to 10 fold) |
| > 500 | > 1000 | > 500 | > 1000 | 50 to 500 | – | Cc1cc(NC(=O)C(=O)N2C[C@H](C)CC[C@H]2[C@H]2CC3(C[C@H](C(N)=O)C3)C2)cnc1N (mixture of isomers) [Compound 812, 6-(1-(2-((6-amino-5-methylpyridin-3-yl)amino)-2-oxoacetyl)-5-methylpiperidin-2-yl)spiro[3.3]heptane-2-carboxamide] | > 10000 | C (an IC50 ratio of less than 3 fold) |
| 50 to 500 | > 1000 | 50 to 500 | 100 to 1000 | 50 to 500 | – | CNC(=O)N1CCCC([C@@H]2CC[C@@H](C)CN2C(=O)C(=O)Nc2cnc(N)c(C)c2)C1 (mixture of isomers) [Compound 814, 1-(2-((6-amino-5-methylpyridin-3-yl)amino)-2-oxoacetyl)-N,5-dimethyl-[2,3′-bipiperidine]-1′-carboxamide] | > 10000 | A (an IC50 ratio greater than or equal to 10 fold) |
| 50 to 500 | 100 to 1000 | 50 to 500 | < 100 | < 50 | – | Cc1cc(NC(=O)C(=O)N2C[C@H](C)CC[C@H]2c2cc3cn[nH]c3s2)cnc1N (racemic) [Compound 815, N-(6-amino-5-methylpyridin-3-yl)-2-(5-methyl-2-(1H-thieno[2,3-c]pyrazol-5-yl)piperidin-1-yl)-2-oxoacetamide] | < 1000 | A* (an IC50 ratio greater than or equal to 10 fold) |
| 50 to 500 | > 1000 | 50 to 500 | 100 to 1000 | 50 to 500 | – | C[C@@H]1CC[C@@H](c2ccc(F)cc2)N(C(=O)C(=O)Nc2cnc(OC(F)(F)F)c(C(N)=O)c2)C1 (racemic) [Compound 818, rac 5-[[2-[(2R,5S)-2-(4-fluorophenyl)-5-methyl-1-piperidyl]-2-oxo-acetyl]amino]-2-(trifluoromethoxy)pyridine-3-carboxamide] | > 10000 | A (an IC50 ratio greater than or equal to 10 fold) |
| 50 to 500 | – | 50 to 500 | 100 to 1000 | < 50 | C* | C[C@@H]1CN(C(=O)C(=O)Nc2cncc(C(N)=O)c2)[C@@H](c2ccc(F)cc2)C(F)(F)C1 (racemic) [Compound 836, 5-[[2-[(2S,5S)-3,3-difluoro-2-(4-fluorophenyl)-5-methyl-1-piperidyl]-2-oxo-acetyl]amino]pyridine-3-carboxamide] | 1000 to 10000 | A (an IC50 ratio greater than or equal to 10 fold) |
| 50 to 500 | 100 to 1000 | 50 to 500 | < 100 | 50 to 500 | – | Cc1cc(NC(=O)C(=O)N2C[C@H](C)CC[C@H]2c2ccc3sc(C(F)(F)F)nc3c2)cnc1N (racemic) [Compound 861, rac-N-(6-Amino-5-methyl-3-pyridyl)-2-[(2R,5S)-5-methyl-2-[2-(trifluoromethyl)-1,3-benzothiazol-5-yl]-1-piperidyl]-2-oxo-acetamide] | < 1000 | A (an IC50 ratio greater than or equal to 10 fold) |

Continued, molecule first:

| Structure (SMILES) | IC50 (PRMT5 [1]) [nM] | IC50 [2] [nM] | IC50 (PRMT5 [3]) [nM] | IC50 [5] [nM] | IC50 (PRMT5 [6]) [nM] | MTAP HAP1 intact IC50 ([2]; SDMA in-cell western) | IC50 [4] [nM] | MTAP intact/deleted ratio [5] |
| --- | --- | --- | --- | --- | --- | --- | --- | --- |
| Cc1cc(NC(=O)C(=O)N2C[C@H](C)CC[C@H]2c2cnn(-c3ccn[nH]3)c2)cnc1N (racemic) [Compound 793, N-(6-amino-5-methyl-3-pyridyl)-2-[(2R,5S)-5-methyl-2-[1-(1H-pyrazol-3-yl)pyrazol-4-yl]-1-piperidyl]-2-oxo-acetamide] | 50 to 500 | > 1000 | 50 to 500 | 100 to 1000 | 50 to 500 | – | 1000 to 10000 | A (an IC50 ratio greater than or equal to 10 fold) |
| Cc1ncc(NC(=O)C(=O)N2C[C@H](C)CC[C@H]2c2ccc3c(c2)CCC(=O)N3)cc1C(F)F (racemic) [Compound 803, rac-N-[5-(Difluoromethyl)-6-methyl-3-pyridyl]-2-[(2S,5R)-5-methyl-2-(2-oxo-3,4-dihydro-1H-quinolin-6-yl)-1-piperidyl]-2-oxo-acetamide] | 50 to 500 | > 1000 | 50 to 500 | < 100 | < 50 | – | < 1000 | A (an IC50 ratio greater than or equal to 10 fold) |
| CNc1nc2cc([C@@H]3CC[C@@H](C)CN3C(=O)C(=O)Nc3cnc(C)c(C)c3)ccc2s1 (racemic) [Compound 828, N-(5,6-dimethyl-3-pyridyl)-2-[(2R,5S)-5-methyl-2-[2-(methylamino)-1,3-benzothiazol-5-yl]-1-piperidyl]-2-oxo-acetamide] | 50 to 500 | > 1000 | 50 to 500 | < 100 | 50 to 500 | – | 1000 to 10000 | A (an IC50 ratio greater than or equal to 10 fold) |
| CC(=O)N[C@H]1CCN(C(=O)C(=O)Nc2cnc(N)c(C)c2)[C@@H](c2ccccc2)C1 (racemic) [Compound 831, 2-[(2R,4S)-4-acetamido-2-phenyl-1-piperidyl]-N-(6-amino-5-methyl-3-pyridyl)-2-oxo-acetamide] | > 500 | > 1000 | > 500 | > 1000 | 50 to 500 | – | > 10000 | B (an IC50 ratio greater than or equal to 3 fold but lower than 10 fold) |
| Cc1cc(NC(=O)C(=O)N2CC[C@@H](C(=O)C(C)C)C[C@H]2c2ccc3c(c2)CCC(=O)N3)cnc1N (racemic) [Compound 853, N-(6-amino-5-methyl-3-pyridyl)-2-[(2S,4R)-4-(2-methylpropanoyl)-2-(2-oxo-3,4-dihydro-1H-quinolin-6-yl)-1-piperidyl]-2-oxo-acetamide] | 50 to 500 | > 1000 | 50 to 500 | 100 to 1000 | 50 to 500 | – | 1000 to 10000 | A (an IC50 ratio greater than or equal to 10 fold) |
| Cc1cc(NC(=O)C(=O)N2CCC(C(=O)C(C)C)C[C@H]2c2ccc3c(c2)CCC(=O)N3)cnc1N (mixture of isomers) [Compound 854, N-(6-Amino-5-methyl-3-pyridyl)-2-[(2S)-4-(2-methylpropanoyl)-2-(2-oxo-3,4-dihydro-1H-quinolin-6-yl)-1-piperidyl]-2-oxo-acetamide] | 50 to 500 | > 1000 | 50 to 500 | 100 to 1000 | 50 to 500 | – | 1000 to 10000 | A (an IC50 ratio greater than or equal to 10 fold) |
| C[C@@H]1CC[C@@H](c2ccc(F)cc2)N(C(=O)C(=O)Nc2cnc(N)c(C(F)F)c2)C1 (racemic) [Compound 867, N-[6-amino-5-(difluoromethyl)-3-pyridyl]-2-[(2R,5S)-2-(4-fluorophenyl)-5-methyl-1-piperidyl]-2-oxo-acetamide] | 50 to 500 | > 1000 | 50 to 500 | 100 to 1000 | 50 to 500 | – | 1000 to 10000 | A (an IC50 ratio greater than or equal to 10 fold) |
